# How the values were obtained:
# D(2) dopamine receptor [1] = target: T1, D(2) dopamine receptor (Homo sapiens, UniProt P14416); test: Binding affinity towards human Dopamine receptor D2 (long) by [3H]-spiperone displacement.
# D(2) dopamine receptor [2] = target: T1, D(2) dopamine receptor; test: Binding affinity towards human Dopamine receptor D2 (short) by [3H]-spiperone displacement.
# D(1A) dopamine receptor = D(1A) dopamine receptor (Bos taurus, UniProt Q95136); test: Binding affinity towards bovine dopamine D1 receptor by [3H]-SCH- 23390 displacement.
# D(1A) dopamine receptor, sequence (Q95136 whole entry): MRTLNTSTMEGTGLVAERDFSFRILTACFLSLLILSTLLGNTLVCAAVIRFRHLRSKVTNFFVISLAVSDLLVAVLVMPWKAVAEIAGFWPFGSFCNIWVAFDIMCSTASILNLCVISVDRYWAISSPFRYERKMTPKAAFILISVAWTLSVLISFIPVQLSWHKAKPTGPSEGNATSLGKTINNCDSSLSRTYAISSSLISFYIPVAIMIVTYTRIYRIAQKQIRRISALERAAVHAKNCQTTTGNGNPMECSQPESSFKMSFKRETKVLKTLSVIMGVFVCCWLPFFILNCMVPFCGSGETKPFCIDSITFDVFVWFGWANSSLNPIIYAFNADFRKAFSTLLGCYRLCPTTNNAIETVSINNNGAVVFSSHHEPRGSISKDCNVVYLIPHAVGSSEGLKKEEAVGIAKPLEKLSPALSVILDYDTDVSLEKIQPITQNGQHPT
# D(4) dopamine receptor = target: T2, D(4) dopamine receptor (Homo sapiens, UniProt P21917); test: Binding affinity towards human Dopamine receptor D4 by [3H]spiperone displacement.
# T2 sequence (P21917 whole entry): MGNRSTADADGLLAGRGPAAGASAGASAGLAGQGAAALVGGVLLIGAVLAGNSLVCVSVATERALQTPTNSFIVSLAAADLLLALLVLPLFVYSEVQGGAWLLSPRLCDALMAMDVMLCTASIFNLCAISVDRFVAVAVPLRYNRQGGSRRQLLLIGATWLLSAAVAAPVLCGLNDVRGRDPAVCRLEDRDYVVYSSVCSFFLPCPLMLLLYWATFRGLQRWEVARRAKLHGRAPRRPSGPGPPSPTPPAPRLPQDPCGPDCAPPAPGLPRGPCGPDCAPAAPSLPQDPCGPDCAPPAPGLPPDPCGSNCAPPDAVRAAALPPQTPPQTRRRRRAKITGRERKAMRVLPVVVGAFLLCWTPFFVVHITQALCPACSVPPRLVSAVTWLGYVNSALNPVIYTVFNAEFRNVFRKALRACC
# D(3) dopamine receptor = D(3) dopamine receptor (Homo sapiens, UniProt P35462); test: Binding affinity towards human dopamine D3 receptor by [3H]spiperone displacement.
# D(3) dopamine receptor, sequence (P35462 whole entry): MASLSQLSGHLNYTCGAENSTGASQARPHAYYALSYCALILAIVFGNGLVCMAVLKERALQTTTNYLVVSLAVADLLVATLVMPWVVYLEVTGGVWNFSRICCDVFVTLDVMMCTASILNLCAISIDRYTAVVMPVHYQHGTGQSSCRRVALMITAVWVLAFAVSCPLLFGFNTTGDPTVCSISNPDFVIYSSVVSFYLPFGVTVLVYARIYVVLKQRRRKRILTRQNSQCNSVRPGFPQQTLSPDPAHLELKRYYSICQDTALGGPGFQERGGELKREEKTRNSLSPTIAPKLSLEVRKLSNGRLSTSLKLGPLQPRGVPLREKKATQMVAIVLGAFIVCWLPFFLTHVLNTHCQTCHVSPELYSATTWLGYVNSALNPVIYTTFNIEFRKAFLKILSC
# T1 sequence (P14416 whole entry): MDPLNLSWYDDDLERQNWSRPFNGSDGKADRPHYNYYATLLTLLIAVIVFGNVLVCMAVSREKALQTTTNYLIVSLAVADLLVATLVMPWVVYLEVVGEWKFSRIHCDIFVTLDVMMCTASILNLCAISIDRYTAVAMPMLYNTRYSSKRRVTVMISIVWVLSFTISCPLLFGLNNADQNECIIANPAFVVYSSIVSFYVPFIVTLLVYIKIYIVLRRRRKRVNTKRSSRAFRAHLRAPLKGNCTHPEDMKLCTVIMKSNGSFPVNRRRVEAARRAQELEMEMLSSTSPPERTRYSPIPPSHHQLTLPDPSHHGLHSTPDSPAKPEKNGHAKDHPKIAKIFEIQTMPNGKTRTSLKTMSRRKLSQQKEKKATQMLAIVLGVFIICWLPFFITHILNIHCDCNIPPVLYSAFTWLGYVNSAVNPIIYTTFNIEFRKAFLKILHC
Compound,Ki (D(2) dopamine receptor [1]) [nM],Ki (D(2) dopamine receptor [2]) [nM],Ki (D(1A) dopamine receptor) [nM],Ki (D(4) dopamine receptor) [nM],Ki (D(3) dopamine receptor) [nM]
COc1cc(NC(C)=O)c(Cl)cc1C(=O)NC[C@H]1CCN(Cc2ccccc2)C1,27000,25000,41000,340,8700
COc1cc(N(C)C(C)=O)c(Cl)cc1C(=O)NC[C@@H]1CCN(Cc2ccccc2)C1,30000,19000,75000,4200,7200
CNc1cc(OC)c(C(=O)NC[C@H]2CN(Cc3ccccc3)C[C@H]2C)cc1Cl,150,79,11000,47,110
COc1cc(N(C)C(C)=O)c(Cl)cc1C(=O)NC[C@H]1CCN(Cc2ccccc2)C1,38000,28000,87000,7000,11000
COc1cc(NC(C)=O)c(Cl)cc1C(=O)NC[C@@H]1CCN(Cc2ccccc2)C1,19000,21000,35000,250,2700
CNc1cc(OC)c(C(=O)NC[C@@H]2CN(Cc3ccccc3)C[C@H]2C)cc1Cl,28,10,14000,220,210
CNc1cc(OC)c(C(=O)NC[C@@H]2CN(Cc3ccccc3)C[C@@H]2C)cc1Cl,51,21,12000,240,570
CNc1cc(OC)c(C(=O)NC[C@H]2CN(Cc3ccccc3)C[C@@H]2C)cc1Cl,330,120,20000,150,320
CCN1CCC[C@H]1CNC(=O)c1cc(S(N)(=O)=O)ccc1OC [LEVOSULPIRIDE],,,50000,,

# Continued by falling Ki (D(1A) dopamine receptor), values first:
Ki (D(2) dopamine receptor [1]) [nM],Ki (D(2) dopamine receptor [2]) [nM],Ki (D(1A) dopamine receptor) [nM],Ki (D(4) dopamine receptor) [nM],Ki (D(3) dopamine receptor) [nM],Compound
1400,640,11000,180,570,COc1cc(N)c(Cl)cc1C(=O)NC[C@@H]1CCN(Cc2ccccc2)C1
820,540,11000,140,2200,COc1cc(N)c(Cl)cc1C(=O)NC[C@H]1CCN(Cc2ccccc2)C1
110,86,9700,23,360,CNc1cc(OC)c(C(=O)NC[C@H]2CCN(Cc3ccccc3)C2)cc1Cl
2000,1500,5200,46,2100,COc1ccc(Br)cc1C(=O)NC[C@H]1CCN(Cc2ccccc2)C1
110,58,5100,19,47,CNc1cc(OC)c(C(=O)NC[C@@H]2CCN(Cc3ccccc3)C2)cc1Cl
980,540,4100,990,350,CCC[C@H]1CN(Cc2ccccc2)C[C@@H]1CNC(=O)c1cc(Cl)c(NC)cc1OC
3100,1600,3700,48,1100,COc1ccc(Br)cc1C(=O)NC[C@@H]1CCN(Cc2ccccc2)C1
54,24,3300,130,270,CCC[C@@H]1CN(Cc2ccccc2)C[C@H]1CNC(=O)c1cc(Cl)c(NC)cc1OC
190,190,2800,200,31,CCC[C@@H]1CN(Cc2ccccc2)C[C@@H]1CNC(=O)c1cc(Cl)c(NC)cc1OC
45,28,240,46,310,CCC[C@H]1CN(Cc2ccccc2)C[C@H]1CNC(=O)c1cc(Cl)c(NC)cc1OC

# From ChEMBL document CHEMBL1132075, “Enantio- and diastereocontrolled dopamine D1, D2, D3 and D4 receptor binding of N-(3-pyrrolidinylmethyl)benzamides synthesized from aspartic acid” (Bioorg Med Chem Lett, 1999)
